Results on six compounds are retold here after patent publication US5326786A, “5,6,7,9-tetrahydro-1,2,3-trimethoxy-9-oxobenzo[alpha]heptalene derivative and pharmaceutical use” (Ohgen Research Laboratories Ltd., priority 1992, dated 1994).

For orientation: LD50 means the dose at which mortality reaches 50%. Read a high LD50 as a less toxic substance.

In brackets after ≈: the same amount, converted by molar mass. Several values for one entry are separate records, joined by “and”; a condition that tells them apart may be missing. Equal entries are not always repeated. Structures can show the parent of a compound that is named as a salt.

Data set [1] concerns adriamycin-resistant mouse leukemic cells p388/ADR. Put plainly: In vitro cancer cell proliferation inhibiting test (1). Type of data set: cell-based. Particulars: 48 h, read-out: IC50 (50% proliferation inhibitory concentration), RPMI 1640 with 10% fetal bovine serum, cultured for 2 days. How it is done: (§1) (1) 10^6 each of mouse leukemic cells p388/S and adriamycin-resistant mouse leukemic cells p388/ADR are suspended in RPMI 1640 media each containing 10% fetal bovine serum, respectively, and cultured for 2 days in the presence of a test compound (this was used after it was dissolved in dimethylsulfoxide to 1 mg/ml and the solution was diluted with a phosphate buffer).

The subject of data set [2] is p388/S mouse leukemic cells. Described as above. Type of data set: cell-based. To be noted: 48 h, read-out: IC50 (50% proliferation inhibitory concentration), RPMI 1640 with 10% fetal bovine serum, cultured for 2 days. How it is done:
as §1

A further data set has as its system cancer cells. Particulars: known compounds, background; cited from earlier work.
The conditions of data set [3]: known compounds, background; cited from earlier work.
The nature of a further data set: Acute toxicity test. Type of data set: in vivo, mouse. To be noted: mouse, in vivo, ip; intraperitoneal; CDF male mice; 10 days observation; Litchfield Wilcoxon method; printed interval 233 to 310 mg/kg.
A further data set has as its system CDF male mice. The data set is described as follows: Acute toxicity test. Particulars: intraperitoneal. Format: in vivo, mouse.
The test system of data set [4] is adriamycin-resistant mouse leukemic cells p388/ADR. The data set is described as follows: In vitro cancer cell proliferation inhibiting test (2), Trypan Blue living cell count. Format: cell-based. As for the experimental part: (§2) (2) Mouse leukemic cells p388/S and adriamycin-resistant mouse leukemic cells P388/ADR subculturally transplanted in the abdominal cavity of mice were taken out together with the asites therefrom, respectively, and after washing, suspended in RPMI 1640 media (each containing 10% fetal bovine serum and 10 μM 2-mercaptoethanol) to 2×10^5 cells/ml, respectively.
(§3) Test solutions (solutions of the compound of the later-described Example 3 in phosphate-buffered physiological saline) were added to portions of each of these cell suspensions, respectively; and the mixtures were separately put into a 24-well culture plate and subjected to culture for 2 days in a 5% carbon dioxide culturing vessel.

Data set [5] has as its system p388/S mouse leukemic cells. The description is as above. Format: cell-based. As for the experimental part:
as §2, §3

With `COc1cc2c(c(OC)c1OC)-c1ccc(OC)c(=O)cc1C(NCC1COC(C)(C)O1)CC2` (racemic) [DL-N-(O,O-isopropylideneglyceryl)deacetylcolchicine], the IC50 in data set [1] was 0.13 µg/mL (≈ 0.276 µM); in data set [2], 0.013 µg/mL (≈ 0.0276 µM).
As for `COc1cc2c(c(OC)c1OC)-c1ccc(OC)c(=O)cc1[C@@H](NC(C)=O)CC2` [Colchicine, colchicine], the carcinostatic action entry with cancer cells is “no sufficient carcinostatic action”. Besides, in data set [3], the toxicity result is “strong toxicity”.
Regarding `COc1cc2c(c(OC)c1OC)-c1ccc(OC)c(=O)cc1C(NC[C@H]1COC(C)(C)O1)CC2` (stereo partly drawn) [D-N-(O,O-isopropylideneglyceryl)deacetylcolchicine], the IC50 in data set [1] was 0.038 µg/mL (≈ 0.0806 µM); in data set [2], 0.014 µg/mL (≈ 0.0297 µM).
As to `COc1cc2c(c(OC)c1OC)-c1ccc(OC)c(=O)cc1C(NC[C@@H]1COC(C)(C)O1)CC2` (stereo partly drawn) [Example 3, L-N-(O,O-isopropylideneglycerol)deacetylcolchicine], the IC50 was 0.14 µg/mL (≈ 0.297 µM) in data set [1] and 0.018 µg/mL (≈ 0.0382 µM) in data set [2]. The same compound had an LD50 at 240 h in the data set “Acute toxicity test” of 269 mg/kg. For the same compound, in the data set on CDF male mice (10 days observation), the body weight change result is on record as “tended to decrease up to 2 to 4 days after administration, but thereafter increased gradually”. The acute toxicity symptoms result in the data set on CDF male mice (high administration groups, on and after one day after administration) is “the lie of hair got worse on and after one day after administration, and cases where diarrhea or loss of hair arose were also observed”.
Take `CNc1ccc2c(cc1=O)C(NCC1COC(C)(C)O1)CCc1cc(OC)c(OC)c(OC)c1-2` (centres unmarked) [N'-(O,O-isopropylideneglyceryl)-N-methyldeacetylcolchiceinamide tartrate salt]: the “IC50 (50% proliferation inhibitory concentration), P388/ADR” value in data set [4] (2 days, experiment carried out three times, one value per experiment, tartrate salt) is 0.0164 µg/mL and 0.0192 µg/mL. Besides, the IC50 is 0.018 µg/mL in data set [4] (Mus musculus, 48 h, read-out: IC50 (50% proliferation inhibitory concentration), P388/ADR, 2 days, experiment carried out three times, one value per experiment) and 0.0135 µg/mL in data set [5] (Mus musculus, P388/S, 48 h, read-out: IC50 (50% proliferation inhibitory concentration), p388/S, 2 days, experiment carried out three times, one value per experiment). The “IC50 (50% proliferation inhibitory concentration), p388/S” value in data set [5] (p388/S, 2 days, experiment carried out three times, one value per experiment, tartrate salt) was 0.0128 µg/mL and 0.0149 µg/mL.
On to `CNc1ccc2c(cc1=O)[C@@H](NC(C)=O)CCc1cc(OC)c(OC)c(OC)c1-2` [N-methylcolchiceinamide], for which the carcinostatic action result in the data set with cancer cells is “no sufficient carcinostatic action”. Besides, in data set [3], the toxicity result is given as “strong toxicity”.
